Tests used:
[1] = tested on: renal ischemia-reperfusion (IR) injury; experiment: restoration of mitochondrial respiration and ATP synthesis following renal ischemia-reperfusion (IR) injury; type: in vivo; details: rats, 2.0 mg/kg sc 30 min before ischemia and at reperfusion; for state 3 respiration (oxygen consumption) in isolated renal mitochondria: 45 min bilateral renal artery occlusion, 20 min reperfusion, p<0.01; for ATP content (ATP synthesis) in rat kidney: 45 min ischemia, 1 h after IR injury, P<0.05
Experimental: FIG. 2 is a chart showing treatment with D-Arg-Dmt-Lys-Phe-NH2 increased state 3 respiration in isolated renal mitochondria after 20 min IR injury (p<0.01).
FIG. 3 is a chart showing that treatment with D-Arg-Dmt-Lys-Phe-NH2 increased ATP content in rat kidney at 1 h after IR injury (P<0.05).
Preliminary studies further support our hypothesis that D-Arg-2′6′-Dmt-Lys-Phe-NH2 can facilitate ET and improve ATP synthesis in vivo. We have examined the effect of this peptide on restoration of mitochondrial respiration and ATP synthesis following ischemia-reperfusion (IR) injury in rats. Rats were subjected to bilateral occlusion of renal artery for 45 min followed by 20 min or 1 h reperfusion. Rats received saline or peptide (2.0 mg/kg sc) 30 min before ischemia and again at the time of reperfusion (n=4-5 in each group).

cytochrome c (cyt c) = cytochrome c (cyt c) (Homo sapiens, UniProt P99999); experiment: kinetics of cyt c reduction monitored by absorbance spectroscopy (A550); type: biochemical; details: for cyt c reduction by peptide alone: peptide alone at 100 μM, no reducing agent
Chain of cytochrome c (cyt c) (P99999 whole entry, species assumed): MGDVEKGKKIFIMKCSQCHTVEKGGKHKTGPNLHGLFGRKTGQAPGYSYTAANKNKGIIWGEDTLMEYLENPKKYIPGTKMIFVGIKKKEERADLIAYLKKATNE
Experimental: FIG. 1 is a chart showing that the peptide D-Arg-Dmt-Lys-Phe-NH2 increases the rate of cytochrome c (cyt c) reduction. Reduced cyt c was measured by absorbance at 550 nm. […] The peptide alone at 100 μM had no effect.
We hypothesize that the distribution of aromatic cationic peptides among the protein complexes in the IMM allows it to serve as additional relay stations to facilitate ET. In support of this hypothesis, we have used the kinetics of cyt c reduction (monitored by absorbance spectroscopy) as a simple model system to determine if the peptide D-Arg-2′6′-Dmt-Lys-Phe-NH2 can facilitate ET.

[2] = tested on: animal models of ischemia-reperfusion injury, neurodegenerative diseases, and metabolic syndrome; experiment: animal models of ischemia-reperfusion injury, neurodegenerative diseases, and metabolic syndrome; type: in vivo
mitochondrial ROS = mitochondrial ROS and mitochondrial function in cellular and animal studies; type: cell-based
From the text: These examples identify “druggable” chemical compounds that can reduce mitochondrial oxidative stress and protect mitochondrial function. As mitochondria are the major source of intracellular reactive oxygen species (ROS), the antioxidant must be delivered to mitochondria in order limit oxidative damage to mitochondrial DNA, proteins of the electron transport chain (ETC), and the mitochondrial lipid membranes. We discovered a family of synthetic aromatic-cationic tetrapeptides that selectively target and concentrate in the inner mitochondrial membrane (IMM). Some of these peptides contain redox-active amino acids that can undergo one-electron oxidation and behave as mitochondria-targeted antioxidants. […] Although radical scavenging is the most commonly used approach to reduce oxidative stress, there are other potential mechanisms that can be used, including facilitation of electron transfer to reduce electron leak and improved mitochondrial reduction potential.

[3] = neutralization of reactive species and inhibition of lipid peroxidation; type: biochemical
[4] = listed as D-Arg-2′6′-Dmt-Lys-Phe-NH2, 2 mg/kg

Substance	state 3 respiration (oxygen consumption) in isolated renal mitochondria ([1]; 2 mg/kg)	state 3 respiration (oxygen consumption) in isolated renal mitochondria [1, 4]	ATP content (ATP synthesis) in rat kidney ([1]; 2 mg/kg)	ATP content (ATP synthesis) in rat kidney [1, 4]	rate of NAC-induced cyt c reduction (cytochrome c (cyt c); 40 μM NAC as reducing agent, absorbance at 550 nm)	cyt c reduction by peptide alone (cytochrome c (cyt c))	cyt c reduction by peptide alone (cytochrome c (cyt c); listed as D-Arg-2′6′-Dmt-Lys-Phe-NH2)	efficacy in animal models [2]	mitochondrial ROS (mitochondrial ROS; cellular and animal studies)	mitochondrial function (mitochondrial ROS; cellular and animal studies)	protection against mitochondrial oxidative stress (mitochondrial ROS; compared with mitochondrial catalase overexpression)	oral bioavailability	lipid peroxidation [3]	neutralization of H2O2 [3]	neutralization of hydroxyl radical [3]	neutralization of peroxynitrite [3]
D-Arg-2′6′-Dmt-Lys-Phe-NH2 [D-Arg-Dmt-Lys-Phe-NH2]	increased	improved	increased	improved	dose-dependently increased	had no effect	did not reduce cyt c									
D-Arg-2′6′-Dmt-Tyr-Lys-Phe-NH2								remarkable efficacy	reduces	protect	comparable to that observed with mitochondrial catalase overexpression	limited by degradation in intestinal fluids	inhibit	can neutralize	can neutralize	can neutralize

Source: patent US20150005242A1, “AROMATIC-CATIONIC PEPTIDES AND USES OF SAME” (Institut de Recherches Cliniques de Montreal, priority 2010, published 2015)
